Measurements taken from US4532255A, “Amidine compounds and anticomplement agent comprising same” (Torii & Co., Ltd., priority 1980, dated 1985).
Where “and” joins values, the source holds several entries; their conditions need not be identical. Equal values may be shown once.

Tests used:
Plasmin [1] = biological target: T1, Plasmin (Homo sapiens, UniProt P00747); test: Anti-plasmin activity (hydrolysis of TAME); format: biochemical; conditions: molar concentration inhibiting 50% of TAME hydrolysis; read-out: Plasmin ID50
T1 sequence (P00747 581-810 limits assumed, species assumed): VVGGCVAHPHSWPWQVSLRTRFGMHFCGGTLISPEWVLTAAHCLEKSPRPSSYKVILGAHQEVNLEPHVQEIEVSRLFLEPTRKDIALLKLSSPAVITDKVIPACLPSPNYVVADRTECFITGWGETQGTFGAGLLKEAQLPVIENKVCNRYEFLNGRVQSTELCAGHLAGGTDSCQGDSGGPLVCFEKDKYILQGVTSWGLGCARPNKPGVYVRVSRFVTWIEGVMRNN
T1 sequence (P00747 97-580 partner limits assumed, species assumed): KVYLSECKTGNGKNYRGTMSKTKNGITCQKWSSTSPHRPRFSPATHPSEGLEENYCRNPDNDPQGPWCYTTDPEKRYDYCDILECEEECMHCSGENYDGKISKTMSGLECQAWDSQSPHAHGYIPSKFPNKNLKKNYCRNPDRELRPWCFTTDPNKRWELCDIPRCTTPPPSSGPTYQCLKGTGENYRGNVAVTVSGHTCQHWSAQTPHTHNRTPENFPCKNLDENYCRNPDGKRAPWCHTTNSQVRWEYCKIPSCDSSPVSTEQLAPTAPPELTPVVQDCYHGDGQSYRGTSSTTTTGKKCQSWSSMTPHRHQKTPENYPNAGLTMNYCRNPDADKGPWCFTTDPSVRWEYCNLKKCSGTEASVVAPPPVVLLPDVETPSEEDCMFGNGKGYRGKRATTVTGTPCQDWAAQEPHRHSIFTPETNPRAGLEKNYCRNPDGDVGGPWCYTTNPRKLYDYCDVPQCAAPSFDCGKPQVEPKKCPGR
Method: (§1) The anti-trypsin, anti-plasmin, anti-kallikrein and anti-thrombin activities were determined according to the method of Muramatsu et al. [M. Muramatsu, T. Onishi, S. Makino, Y. Hayashi and S. Fujii, J. of Biochem., 58, 214 (1965)]. […] The compound No. corresponds to the compound number shown in Examples.

Thrombin [2] = biological target: T2, Thrombin (Homo sapiens, UniProt P00734); test: biochemical; conditions: for IC50: molar concentration inhibiting 50% of TAME hydrolysis, read-out: Thrombin ID50; for inhibition at 10 µM: at 1×10^-5 M, read-out: Thrombin percentage inhibition
Thrombin [3] = biological target: T2, Thrombin; conditions: G. Wagner et al., Pharmazie 1977; cited from earlier work
Trypsin [4] = biological target: T3, Trypsin (Bos taurus, UniProt P00760); conditions: G. Wagner et al., Pharmazie 1977; cited from earlier work
T3 sequence (P00760 24-246): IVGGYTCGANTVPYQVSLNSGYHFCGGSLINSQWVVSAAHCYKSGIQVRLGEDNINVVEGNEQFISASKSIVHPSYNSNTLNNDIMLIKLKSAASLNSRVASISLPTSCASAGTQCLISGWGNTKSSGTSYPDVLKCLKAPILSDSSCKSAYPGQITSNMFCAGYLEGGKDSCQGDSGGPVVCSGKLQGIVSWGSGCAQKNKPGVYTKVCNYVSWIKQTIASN

Plasmin [5] = biological target: T1, Plasmin; conditions: G. Wagner et al., Pharmazie 1977; cited from earlier work
Kallikrein = test: Anti-kallikrein activity (hydrolysis of TAME); format: biochemical; conditions: molar concentration inhibiting 50% of TAME hydrolysis; read-out: Kallikrein ID50
Method: The anti-trypsin, anti-plasmin, anti-kallikrein and anti-thrombin activities were determined according to the method of Muramatsu et al. [M. Muramatsu, T. Onishi, S. Makino, Y. Hayashi and S. Fujii, J. of Biochem., 58, 214 (1965)]. The data summarized in Table 1 are expressed in terms of molar concentration (ID50) of the test compound which inhibits 50% of the activity of each enzyme to hydrolyze TAME (tosylalginine methyl ester). The compound No. corresponds to the compound number shown in Examples.

Trypsin [6] = biological target: T3, Trypsin; test: Anti-trypsin activity (hydrolysis of TAME); format: biochemical; conditions: molar concentration inhibiting 50% of TAME hydrolysis; read-out: Trypsin ID50
Method: as §1

[7] = tested on: complement mediated hemolysis; test: Inhibition of complement mediated hemolysis; format: cell-based
Method: The principle of this method is based on the fact that hemolysis is caused by the activation of complement, when the latter is added to a complex (immune complex) of erythrocytes and the antibody thereof. The degree of hemolysis varies in proportion to the amount of complement added. Therefore, when a known amount of complement admixed with a C1 esterase inhibitor is used, the hemolysis must be suppressed in proportion to the inhibitory activity.

Forssman shock = Forssman shock (survival time after hemolysin); format: in vivo, Male Hartlay guinea pig; conditions: 5 minutes before hemolysin
Excerpt: Quite different from other animals, guinea pig has on the surface of its organs a specific antigen called Forssman antigen which specifically reacts with the antibody of sheep erythrocyte. Forssman shock is based on the above principle and is a shock caused by the administration of antibody of sheep erythrocyte to a guinea pig. The Forssman shock was investigated in detail by many researchers and it was definitely shown that this shock is a model case where the complement plays the principal part and that the shock is associated with a classical pathway in which the complement system is activated progressively starting from C1. Since the participation of complement in autoimmune diseases has been established, the Forssman shock can be said to be a useful means for testing a drug for autoimmune diseases. A drug effective for the treatment of Forssman shock is useful as a drug of autoimmune diseases. [Anti-trypsin, anti-plasmin, anti-kallikrein and anti-thrombin activities]
The experiment was performed according to the method of I. G. Offerness et al. [Biochem. Pharmacol., 27 (14), 1873-1878 (1978)]. Male Hartlay guinea pig of about 300 g in body weight was used. Each guinea pig of the control group was administered intravenously with 0.5 ml (minimum dose to cause the shock) of hemolysin (commercial hemolysin, 5,000 U as assayed by the method of Ogata) and the time elapsed until death was observed. For the test group, each guinea pig was administered intravenously with the test compound 5 minutes before the administration of hemolysin and the time (second) elapsed until death was observed.

[8] = Toxicity, median lethal dose (LD50); conditions: in vivo
C1s [9] = biological target: T4, C1s (Homo sapiens, UniProt P09871); test: biochemical; conditions: ATEE hydrolysis; read-out: Anti-C1 activity, C1s ID50
T4 sequence (P09871 438-688 limits assumed): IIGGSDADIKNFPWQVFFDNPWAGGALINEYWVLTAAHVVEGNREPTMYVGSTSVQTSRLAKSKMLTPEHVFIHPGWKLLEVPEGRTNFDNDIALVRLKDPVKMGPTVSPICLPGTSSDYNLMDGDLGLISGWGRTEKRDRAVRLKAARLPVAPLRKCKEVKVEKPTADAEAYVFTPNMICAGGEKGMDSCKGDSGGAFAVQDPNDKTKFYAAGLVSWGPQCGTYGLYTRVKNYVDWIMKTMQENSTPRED
T4 sequence (P09871 16-437 partner limits assumed): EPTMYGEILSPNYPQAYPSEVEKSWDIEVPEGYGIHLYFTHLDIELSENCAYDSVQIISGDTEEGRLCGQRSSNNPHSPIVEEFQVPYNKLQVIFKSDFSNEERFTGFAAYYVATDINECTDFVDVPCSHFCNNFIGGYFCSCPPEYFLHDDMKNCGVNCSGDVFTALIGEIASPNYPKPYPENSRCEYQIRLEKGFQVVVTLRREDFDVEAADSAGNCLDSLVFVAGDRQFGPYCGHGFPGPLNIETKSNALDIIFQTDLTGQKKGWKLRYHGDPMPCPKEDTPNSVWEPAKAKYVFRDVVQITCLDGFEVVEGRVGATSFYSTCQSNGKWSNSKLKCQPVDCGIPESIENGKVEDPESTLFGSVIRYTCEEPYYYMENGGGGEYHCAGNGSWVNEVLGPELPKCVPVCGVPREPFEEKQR
Method: The anti-Cl esterase (Clr, Cls) activity was determined according to the method of Okamura et al. [K. Okamura, M. Muramatsu and S. Fujii, Biochem. Biophys. […] The figures in Table 2 have the following meanings:
Cls: Molar concentration of the test compound which inhibits 50% of the ability of Cls to hydrolyse ATEE (acetyltyrosin ethyl ester).

C1r = biological target: T5, C1r (Homo sapiens, UniProt P00736); test: Anti-C1 esterase (C1r) activity (hydrolysis of AAME); format: biochemical; conditions: for IC50: AAME hydrolysis, read-out: Anti-C1 activity, C1r ID50
T5 sequence (P00736 464-705 limits assumed): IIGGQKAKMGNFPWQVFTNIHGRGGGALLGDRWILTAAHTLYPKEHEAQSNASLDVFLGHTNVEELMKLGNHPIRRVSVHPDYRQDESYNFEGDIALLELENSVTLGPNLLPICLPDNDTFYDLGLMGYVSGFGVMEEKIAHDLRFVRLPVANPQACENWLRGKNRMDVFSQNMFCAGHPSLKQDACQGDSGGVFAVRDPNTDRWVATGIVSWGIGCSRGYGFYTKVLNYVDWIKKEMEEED
T5 sequence (P00736 18-463 partner limits assumed): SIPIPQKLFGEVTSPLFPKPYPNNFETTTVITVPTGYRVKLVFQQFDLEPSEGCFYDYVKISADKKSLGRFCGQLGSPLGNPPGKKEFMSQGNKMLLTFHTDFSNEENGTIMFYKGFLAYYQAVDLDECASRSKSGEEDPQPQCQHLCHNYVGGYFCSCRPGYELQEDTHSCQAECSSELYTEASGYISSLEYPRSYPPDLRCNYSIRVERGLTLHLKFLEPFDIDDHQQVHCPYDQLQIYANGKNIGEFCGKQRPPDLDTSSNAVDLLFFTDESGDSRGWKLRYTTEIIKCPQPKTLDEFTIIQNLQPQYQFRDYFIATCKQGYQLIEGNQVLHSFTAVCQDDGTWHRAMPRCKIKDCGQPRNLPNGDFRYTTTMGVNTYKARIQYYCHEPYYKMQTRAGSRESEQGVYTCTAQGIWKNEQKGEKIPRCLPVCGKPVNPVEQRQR
Method: The anti-Cl esterase ([…]) activity was determined according to the method of Okamura et al. [K. Okamura, M. Muramatsu and S. Fujii, Biochem. Biophys.

C1s [10] = biological target: T4, C1s; test: biochemical; conditions: at 1×10^-5 M; read-out: Anti-C1 activity, C1s percent inhibition
complement = conditions: Y. Takada et al., Immunology 1978; cited from earlier work
[11] = 1.0 mg/kg intravenous, control average 465 (No. 27), 428 (No. 22)

For `N=C(N)c1ccc2cc(O)ccc2c1` [6-amidino-2-naphthol, reference compound], the IC50 (Plasmin [1]) is given as 440 µM, the IC50 (Thrombin [2]) is given as over 1000 µM and the “Thrombin inhibition in words” value (Thrombin [3]) is given as “inhibits trypsin, plasmin and thrombin”. For the same compound, the “Trypsin inhibition in words” value (Trypsin [4]) was “inhibits trypsin, plasmin and thrombin”, the “Plasmin inhibition in words” value (Plasmin [5]) was “inhibits trypsin, plasmin and thrombin” and the IC50 (Kallikrein) was over 1000 µM. For the same compound, the IC50 (Trypsin [6]) was over 1000 µM.

For `N=C(N)c1ccc2cc(OC(=O)c3ccc(CN)cc3)ccc2c1` [Compound 22, 6-amidino-2-naphthyl 4-aminomethylbenzoate], the IC50 (Plasmin [1]) was 4 µM, the “Inhibition of complement mediated hemolysis (%)” value (from here on “Inhibition … (%)”) ([7]; 1 × 10^-4) was 100% and the “Inhibition … (%)” value ([7]; 1 × 10^-5) was 99%. The “Inhibition … (%)” value ([7]; 1 × 10^-6) was 90%, the “Inhibition … (%)” value ([7]; 1 × 10^-7) was 48% and the “Time elapsed until death, individual animal” value (Forssman shock; 1.0 mg/kg intravenous) was 240 s and 630 s and 250 s and 570 s and 440 s and 675 s. The “Time elapsed until death, average” value (Forssman shock; [11]) was 468 s, the “Time elapsed until death, individual animal” value (Forssman shock; 3.0 mg/kg intravenous) was 745 s and 1410 s and 600 s and 885 s and 455 s and 435 s and the “Time elapsed until death, average” value (Forssman shock; 3.0 mg/kg intravenous, control average 428) was 755 s. For the same compound, the LD50 ([8]; ip) was 200 mg/kg, the LD50 ([8]; po) was 2500 mg/kg and the inhibition at 10 µM (Thrombin [2]) was 26%. The IC50 (C1s [9]) was 0.2 µM, the IC50 (C1r) was 0.3 µM and the IC50 (Kallikrein) was 3 µM. For the same compound, the IC50 (Trypsin [6]) was 4 µM.

With `N=C(N)Nc1ccc(C(=O)Oc2ccc3cc(C(=N)N)ccc3c2)cc1` [Compound 27, 6-amidino-2-naphthyl 4-guanidinobenzoate] the “Inhibition … (%)” value ([7]; 1 × 10^-4) was 100%, the “Inhibition … (%)” value ([7]; 1 × 10^-5) was 100% and the “Inhibition … (%)” value ([7]; 1 × 10^-6) was 97%. For the same compound, the “Inhibition … (%)” value ([7]; 1 × 10^-7) was 44%, the “Time elapsed until death, individual animal” value (Forssman shock; 0.5 mg/kg intravenous) was 732 s and 740 s and 723 s and 724 s and 590 s and 410 s and the “Time elapsed until death, average” value (Forssman shock; 0.5 mg/kg intravenous, control average 465) was 653 s. For the same compound, the “Time elapsed until death, individual animal” value (Forssman shock; 1.0 mg/kg intravenous) was 740 sec. and 820 sec. and Survival and 670 sec. and 1325 sec, the “Time elapsed until death, average” value (Forssman shock; [11]) was over 889 s and the LD50 ([8]; ip) was 200 mg/kg. It also gave an LD50 ([8]; po) of 2500 mg/kg, an IC50 (Thrombin [2]) of 3 µM and an IC50 (C1s [9]) of 0.05 µM. It also gave an IC50 (C1r) of 0.1 µM and an IC50 (Kallikrein) of 5 µM.

For `N=C(N)c1ccc2cc(OC(=O)CCc3ccc(N)cc3)ccc2c1` [Compound 51, 6-amidino-2-naphthyl 4-aminophenylpropionate], the IC50 (Plasmin [1]) was 6 µM, the “Inhibition … (%)” value ([7]; 1 × 10^-4) was 54% and the “Inhibition … (%)” value ([7]; 1 × 10^-5) was 6%. For the same compound, the “Inhibition … (%)” value ([7]; 1 × 10^-6) was 1%, the “Inhibition … (%)” value ([7]; 1 × 10^-7) was 0% and the inhibition at 10 µM (C1s [10]) was 21%. The inhibition at 10 µM (Thrombin [2]) was 35%, the inhibition at 10 µM (C1r; at 1×10^-5 M, read-out: Anti-C1 activity, C1r percent inhibition) was 18% and the IC50 (Trypsin [6]) was 10 µM.

For `CC(=O)N[C@@H](CC(C)C)C(=O)N[C@@H](CC(C)C)C(=O)N[C@H](C=O)CCCNC(=N)N` [Leupeptin, reference compound], the “Inhibition … (%)” value ([7]; 1 × 10^-4) was 97%, the “Inhibition … (%)” value ([7]; 1 × 10^-5) was 52% and the “Inhibition … (%)” value ([7]; 1 × 10^-6) was 0%. For the same compound, the “Inhibition … (%)” value ([7]; 1 × 10^-7) was 0% and the “Anti-complement activity in words” value (complement) was “having an anti-complement activity”.
